Source: ChEMBL document CHEMBL1201862, “PubChem BioAssay data set” (2004)
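48-hour exposure; five concentrations; linearly interpolated endpoints. Here, GI50 denotes the concentration required for 50% inhibition of growth.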 Calls of active or inactive are those of the source. Cut-off read from the data, not from the text of the source: active = GI50 up to about 1.1 µM and inactive = higher.

How the values were obtained:
Test in all cases: NCI anticancer screen, dose series, 48 h
786-0 = test system: 786-0
A498 = test system: A498
A549 = test system: A549
BT-549 = test system: BT-549
CAKI-1 = test system: CAKI-1
CCRF-CEM = test system: CCRF-CEM
COLO 205 = test system: COLO 205
DU-145 = test system: DU-145
EKVX = test system: EKVX
HCC 2998 = test system: HCC 2998
HCT-116 = test system: HCT-116
HCT-15 = test system: HCT-15
HL-60 = test system: HL-60
HOP-62 = test system: HOP-62
HOP-92 = test system: HOP-92
HT-29 = test system: HT-29
Hs-578T = test system: Hs-578T
IGROV-1 = test system: IGROV-1
KM12 = test system: KM12
LOX IMVI = test system: LOX IMVI
M14 = test system: M14
MCF7 = test system: MCF7
MDA-MB-231 = test system: MDA-MB-231
MDA-MB-435 = test system: MDA-MB-435
MDA-N = test system: MDA-N
MOLT-4 = test system: MOLT-4
Malme-3M = test system: Malme-3M
NCI-H226 = test system: NCI-H226
NCI-H23 = test system: NCI-H23
NCI-H460 = test system: NCI-H460
NCI-H522 = test system: NCI-H522
NCI/ADR-RES = test system: NCI/ADR-RES
OVCAR-3 = test system: OVCAR-3
OVCAR-4 = test system: OVCAR-4
OVCAR-5 = test system: OVCAR-5
OVCAR-8 = test system: OVCAR-8
RPMI-8226 = test system: RPMI-8226
RXF 393 = test system: RXF 393
SF-268 = test system: SF-268
SF-295 = test system: SF-295
SF-539 = test system: SF-539
SK-MEL-28 = test system: SK-MEL-28
SK-MEL-2 = test system: SK-MEL-2
SK-MEL-5 = test system: SK-MEL-5
SK-OV-3 = test system: SK-OV-3
SN12C = test system: SN12C
SNB-19 = test system: SNB-19
SR = test system: SR
SW-620 = test system: SW-620
T47D = test system: T47D
U-251 = test system: U-251
UACC-257 = test system: UACC-257
UACC-62 = test system: UACC-62
UO-31 = test system: UO-31
ACHN = test system: ACHN
K562 = test system: K562
PC-3 = test system: PC-3
SNB-75 = test system: SNB-75
TK-10 = test system: TK-10

COc1cc(C(c2cccc3ccccc23)N2C(=O)CCC2C(=O)NCc2ccccc2)cc(OC)c1OC (stereo not drawn)
GI50 (786-0): > 100 µM (inactive) | GI50 (A498): > 100 µM (inactive) | GI50 (A549): > 100 µM (inactive) | GI50 (BT-549): > 100 µM (inactive) | GI50 (CAKI-1): > 100 µM (inactive) | GI50 (CCRF-CEM): 93.3 µM (inactive) | GI50 (COLO 205): > 100 µM (inactive) | GI50 (DU-145): > 100 µM (inactive) | GI50 (EKVX): > 100 µM (inactive) | GI50 (HCC 2998): > 100 µM (inactive) | GI50 (HCT-116): > 100 µM (inactive) | GI50 (HCT-15): > 100 µM | GI50 (HL-60): 57.7 µM (inactive) | GI50 (HOP-62): > 100 µM (inactive) | GI50 (HOP-92): > 100 µM (inactive) | GI50 (HT-29): > 100 µM (inactive) | GI50 (Hs-578T): 83.6 µM (inactive) | GI50 (IGROV-1): > 100 µM (inactive) | GI50 (KM12): > 100 µM (inactive) | GI50 (LOX IMVI): > 100 µM (inactive) | GI50 (M14): > 100 µM (inactive) | GI50 (MCF7): > 100 µM (inactive) | GI50 (MDA-MB-231): > 100 µM (inactive) | GI50 (MDA-MB-435): > 100 µM (inactive) | GI50 (MDA-N): > 100 µM (inactive) | GI50 (MOLT-4): 78 µM (inactive) | GI50 (Malme-3M): > 100 µM (inactive) | GI50 (NCI-H226): > 100 µM (inactive) | GI50 (NCI-H23): > 100 µM (inactive) | GI50 (NCI-H460): > 100 µM (inactive) | GI50 (NCI-H522): > 100 µM (inactive) | GI50 (NCI/ADR-RES): > 100 µM (inactive) | GI50 (OVCAR-3): > 100 µM (inactive) | GI50 (OVCAR-4): > 100 µM (inactive) | GI50 (OVCAR-5): > 100 µM (inactive) | GI50 (OVCAR-8): > 100 µM (inactive) | GI50 (RPMI-8226): 55.3 µM (inactive) | GI50 (RXF 393): > 100 µM (inactive) | GI50 (SF-268): > 100 µM (inactive) | GI50 (SF-295): > 100 µM (inactive) | GI50 (SF-539): > 100 µM (inactive) | GI50 (SK-MEL-28): > 100 µM (inactive) | GI50 (SK-MEL-2): > 100 µM (inactive) | GI50 (SK-MEL-5): > 100 µM (inactive) | GI50 (SK-OV-3): > 100 µM (inactive) | GI50 (SN12C): > 100 µM (inactive) | GI50 (SNB-19): > 100 µM (inactive) | GI50 (SR): > 100 µM (inactive) | GI50 (SW-620): > 100 µM (inactive) | GI50 (T47D): > 100 µM (inactive) | GI50 (U-251): > 100 µM (inactive) | GI50 (UACC-257): > 100 µM (inactive) | GI50 (UACC-62): 64.6 µM (inactive) | GI50 (UO-31): > 100 µM (inactive)

CCc1c(CNC2=NCCN2)c(CC)c(CNC2=NCCN2)c(CC)c1CNC1=NCCN1
GI50 (786-0): > 100 µM (inactive) | GI50 (A498): > 100 µM (inactive) | GI50 (A549): > 100 µM (inactive) | GI50 (ACHN): > 100 µM (inactive) | GI50 (BT-549): > 100 µM (inactive) | GI50 (CAKI-1): > 100 µM (inactive) | GI50 (CCRF-CEM): > 100 µM (inactive) | GI50 (COLO 205): > 100 µM (inactive) | GI50 (DU-145): > 100 µM (inactive) | GI50 (EKVX): > 100 µM (inactive) | GI50 (HCC 2998): > 100 µM (inactive) | GI50 (HCT-116): > 100 µM (inactive) | GI50 (HCT-15): > 100 µM | GI50 (HOP-62): > 100 µM (inactive) | GI50 (HOP-92): > 100 µM (inactive) | GI50 (HT-29): > 100 µM (inactive) | GI50 (Hs-578T): > 100 µM (inactive) | GI50 (IGROV-1): > 100 µM (inactive) | GI50 (K562): > 100 µM (inactive) | GI50 (KM12): > 100 µM (inactive) | GI50 (M14): > 100 µM (inactive) | GI50 (MCF7): > 100 µM (inactive) | GI50 (MDA-MB-435): > 100 µM (inactive) | GI50 (MDA-N): > 100 µM (inactive) | GI50 (MOLT-4): > 100 µM (inactive) | GI50 (Malme-3M): > 100 µM (inactive) | GI50 (NCI-H226): > 100 µM (inactive) | GI50 (NCI-H23): > 100 µM (inactive) | GI50 (NCI-H460): > 100 µM (inactive) | GI50 (NCI-H522): > 100 µM (inactive) | GI50 (NCI/ADR-RES): > 100 µM (inactive) | GI50 (OVCAR-3): > 100 µM (inactive) | GI50 (OVCAR-4): > 100 µM (inactive) | GI50 (OVCAR-5): > 100 µM (inactive) | GI50 (OVCAR-8): > 100 µM (inactive) | GI50 (PC-3): > 100 µM (inactive) | GI50 (RPMI-8226): > 100 µM (inactive) | GI50 (RXF 393): > 100 µM (inactive) | GI50 (SF-268): > 100 µM (inactive) | GI50 (SF-295): > 100 µM (inactive) | GI50 (SF-539): > 100 µM (inactive) | GI50 (SK-MEL-28): > 100 µM (inactive) | GI50 (SK-MEL-2): > 100 µM (inactive) | GI50 (SK-MEL-5): > 100 µM (inactive) | GI50 (SK-OV-3): > 100 µM (inactive) | GI50 (SN12C): > 100 µM (inactive) | GI50 (SNB-19): > 100 µM (inactive) | GI50 (SNB-75): > 100 µM (inactive) | GI50 (SR): > 100 µM (inactive) | GI50 (SW-620): > 100 µM (inactive) | GI50 (T47D): > 100 µM (inactive) | GI50 (TK-10): > 100 µM (inactive) | GI50 (U-251): > 100 µM (inactive) | GI50 (UACC-257): > 100 µM (inactive) | GI50 (UACC-62): > 100 µM (inactive) | GI50 (UO-31): > 100 µM (inactive)

O=C(Nc1cccc2nsnc12)c1cc2c(cc1Cl)Sc1nccn1S2(=O)=O
GI50 (786-0): 15.9 µM (inactive) | GI50 (A498): 13.6 µM (inactive) | GI50 (A549): 17.3 µM (inactive) | GI50 (ACHN): 12.7 µM (inactive) | GI50 (BT-549): 15.1 µM (inactive) | GI50 (CAKI-1): 9.55 µM (inactive) | GI50 (CCRF-CEM): 3.28 µM (inactive) | GI50 (COLO 205): 18 µM (inactive) | GI50 (EKVX): 5.22 µM (inactive) | GI50 (HCC 2998): 3.38 µM (inactive) | GI50 (HCT-116): 2.77 µM (inactive) | GI50 (HCT-15): 5.19 µM | GI50 (HL-60): 1.85 µM (inactive) | GI50 (HOP-62): 1.78 µM (inactive) | GI50 (HOP-92): 4.4 µM (inactive) | GI50 (HT-29): 2.74 µM (inactive) | GI50 (Hs-578T): 4.25 µM (inactive) | GI50 (IGROV-1): 11.5 µM (inactive) | GI50 (K562): 3.98 µM (inactive) | GI50 (KM12): 2.08 µM (inactive) | GI50 (LOX IMVI): 8.43 µM (inactive) | GI50 (M14): 18.9 µM (inactive) | GI50 (MCF7): 1.73 µM (inactive) | GI50 (MDA-MB-231): 8.26 µM (inactive) | GI50 (MDA-MB-435): 9.62 µM (inactive) | GI50 (MDA-N): 14.1 µM (inactive) | GI50 (MOLT-4): 2.95 µM (inactive) | GI50 (Malme-3M): 74.5 µM (inactive) | GI50 (NCI-H226): 25.9 µM (inactive) | GI50 (NCI-H23): 11.2 µM (inactive) | GI50 (NCI-H460): 2.4 µM (inactive) | GI50 (NCI-H522): 8.2 µM (inactive) | GI50 (NCI/ADR-RES): 17.7 µM (inactive) | GI50 (OVCAR-3): 1.68 µM (inactive) | GI50 (OVCAR-4): 3.31 µM (inactive) | GI50 (OVCAR-5): 32.4 µM (inactive) | GI50 (OVCAR-8): 2.73 µM (inactive) | GI50 (PC-3): 1.9 µM (inactive) | GI50 (RPMI-8226): 2.26 µM (inactive) | GI50 (RXF 393): 4.6 µM (inactive) | GI50 (SF-268): 3.62 µM (inactive) | GI50 (SF-295): 14.1 µM (inactive) | GI50 (SF-539): 3.52 µM (inactive) | GI50 (SK-MEL-28): 3.01 µM (inactive) | GI50 (SK-MEL-2): 11.2 µM (inactive) | GI50 (SK-MEL-5): 17.9 µM (inactive) | GI50 (SK-OV-3): 54.5 µM (inactive) | GI50 (SN12C): 13.6 µM (inactive) | GI50 (SNB-19): 12.1 µM (inactive) | GI50 (SNB-75): 8.02 µM (inactive) | GI50 (SR): 2.73 µM (inactive) | GI50 (SW-620): 10.5 µM (inactive) | GI50 (T47D): 2.24 µM (inactive) | GI50 (TK-10): 6.01 µM (inactive) | GI50 (U-251): 5.66 µM (inactive) | GI50 (UACC-257): 1.81 µM (inactive) | GI50 (UACC-62): 5.33 µM (inactive) | GI50 (UO-31): 2.07 µM (inactive)
